# Values quoted from earlier work in patent US9700048B2, “Agroformulation comprising copolymer of vinyllactam, N-alkyl acrylamide, and alkyl (meth)acrylate” (BASF SE, priority 2012, dated 2017).
# Conditions: at 20° C.
smiles,measurement,value
Cn1cc(C(=O)Nc2ccccc2-c2cc(F)c(F)c(F)c2)c(C(F)F)n1 [fluxapyroxad],solubility in water,3.88 µg/mL
